The target of the experiment is T1, androgen receptor (Homo sapiens, UniProt P10275).
T1 sequence (P10275 1-920 Q868H): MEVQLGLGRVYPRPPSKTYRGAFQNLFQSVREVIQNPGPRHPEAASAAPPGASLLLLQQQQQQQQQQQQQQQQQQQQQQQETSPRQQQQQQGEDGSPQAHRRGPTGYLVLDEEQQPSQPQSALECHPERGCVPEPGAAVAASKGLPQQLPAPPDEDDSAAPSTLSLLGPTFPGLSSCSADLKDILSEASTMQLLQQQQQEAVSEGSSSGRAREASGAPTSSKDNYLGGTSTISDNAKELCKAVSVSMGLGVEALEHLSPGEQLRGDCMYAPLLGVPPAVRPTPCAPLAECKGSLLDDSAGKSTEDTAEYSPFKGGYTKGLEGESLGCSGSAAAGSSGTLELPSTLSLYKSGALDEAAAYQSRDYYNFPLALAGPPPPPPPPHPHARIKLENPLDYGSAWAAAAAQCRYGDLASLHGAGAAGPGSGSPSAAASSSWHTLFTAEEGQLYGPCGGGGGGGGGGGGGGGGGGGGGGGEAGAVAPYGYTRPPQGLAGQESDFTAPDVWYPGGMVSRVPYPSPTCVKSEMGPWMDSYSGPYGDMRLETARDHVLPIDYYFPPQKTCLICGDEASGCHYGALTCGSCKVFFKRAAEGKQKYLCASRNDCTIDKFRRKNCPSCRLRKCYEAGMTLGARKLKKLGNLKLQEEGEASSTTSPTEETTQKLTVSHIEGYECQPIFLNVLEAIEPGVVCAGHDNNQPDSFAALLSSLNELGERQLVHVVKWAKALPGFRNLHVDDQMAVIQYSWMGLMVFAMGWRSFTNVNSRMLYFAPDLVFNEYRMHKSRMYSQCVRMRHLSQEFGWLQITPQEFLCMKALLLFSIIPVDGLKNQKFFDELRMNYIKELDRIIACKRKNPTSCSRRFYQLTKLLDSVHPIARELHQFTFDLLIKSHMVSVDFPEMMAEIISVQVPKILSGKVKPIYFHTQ
The experiment can be described thus: AR Antagonist Cell Assay (MMTV-luciferase reporter, DHT-stimulated). The class given is cell-based. Particulars: MDA-MB453-MMTV clone 54-19 cells; antagonism of 100 pM DHT, 17 hr, luciferase readout. Put shortly:
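MDA-MB453 cells stably carrying MMTV-ARE-firefly luciferase, in 1% charcoal-treated serum, preincubated 30 min with compound (10 uM or 1 uM) then stimulated with 100 pM DHT for 17 h at 37° C. Luminescence read; result as % inhibition of DHT fold induction.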
For `COc1ccc(OC)c(NS(=O)(=O)c2ccc(Cc3ccc4oc(=O)cc(C(F)(F)F)c4c3)cc2)c1` [Example 140, N-(2,5-Dimethoxyphenyl)-4-(2-oxo-4-trifluoromethyl-2H-chromen-6-ylmethyl)-benzenesulfonamide], the IC50 was 7.3 µM.
In the case of `O=c1cc(C(F)(F)F)c2cc(Cc3ccc(S(=O)(=O)NCc4cc(C(F)(F)F)ccc4F)cc3)ccc2[nH]1` [Example 90, N-(2-Fluoro-5-trifluoromethylbenzyl)-4-(2-oxo-4-trifluoromethyl-1,2-dihydroquinolin-6-ylmethyl)-benzenesutfonamide] it was 2.62 µM.
Consider `CCCCN(CCO)S(=O)(=O)c1ccc(Cc2ccc3oc(=O)cc(C(F)(F)F)c3c2)cc1` [Example 100, N-Butyl-N-(2-hydroxyethyl)-4-(2-oxo-4-trifluoromethyl-2H-chromen-6-ylmethyl)-benzenesulfonamide], for which the IC50 was about 10 µM.
`O=c1cc(C(F)(F)F)c2cc(Cc3ccc(S(=O)(=O)NC4CCc5ccccc54)cc3)ccc2o1` (stereo not drawn) [Example 178, N-Indan-1-yl-4-(2-oxo-4-trifluoromethyl-2H-chromen-6-ylmethyl)benzenesulfonamide] showed a half-maximal inhibitory concentration (IC50) of 7.74 µM.
The compound `O=c1cc(C(F)(F)F)c2cc(Cc3ccc(S(=O)(=O)NCc4ccc5c(c4)CCO5)cc3)ccc2o1` [Example 189, N-(2,3-Dihydrobenzofuran-5-ylmethyl)-4-(2-oxo-4-trifluoromethyl-2H-chromen-6-ylmethyl)benzenesulfonamide] showed an IC50 of 2.51 µM.
For the compound `O=c1cc(C(F)(F)F)c2cc(Cc3ccc(S(=O)(=O)Nc4ccc5c(c4)CCC5)cc3)ccc2o1` [Example 127, N-Indan-5-yl-4-(2-oxo-4-trifluoromethyl-2H-chromen-6-ylmethyl)benzenesulfonamide], the IC50 is 2.77 µM.
`O=c1cc(C(F)(F)F)c2cc(Cc3ccc(S(=O)(=O)NCc4cccc(Cl)c4)cc3)ccc2o1` [Example 186, N-(3-Chlorobenzyl)-4-(2-oxo-4-trifluoromethyl-2H-chromen-6-ylmethyl)benzenesulfonamide] had an IC50 of over 10 µM.
`CCc1cccc(NS(=O)(=O)c2ccc(Cc3ccc4[nH]c(=O)cc(C(F)(F)F)c4c3)cc2)c1` [Example 17, N-(3-Ethylphenyl)-4-(2-oxo-4-trifluoromethyl-1,2-dihydroquinolin-6-ylmethyl)benzenesulfonamide] came in with an IC50 of over 10 µM.
`CSc1ccccc1CNS(=O)(=O)c1ccc(Cc2ccc3[nH]c(=O)cc(C(F)(F)F)c3c2)cc1` [Example 73, N-(2-Methylsulfanylbenzyl)-4-(2-oxo-4-trifluoromethyl-1,2-dihydroquinolin-6-ylmethyl)-benzenesulfonamide] registered an IC50 of over 10 µM.
In the case of `O=c1cc(C(F)(F)F)c2cc(Cc3ccc(S(=O)(=O)Nc4cc(F)c(F)c(F)c4)cc3)ccc2[nH]1` [Example 35, 4-(2-Oxo-4-trifluoromethyl-1,2-dihydroquinolin-6-ylmethyl)-N-(3,4,5-trifluorophenyl)-benzenesulfonamide], the IC50 is over 10 µM.
Compound `O=c1cc(C(F)(F)F)c2cc(Cc3ccc(S(=O)(=O)N[C@H]4CCCC[C@H]4OCc4ccccc4)cc3)ccc2[nH]1` [Example 93, N-(2-Benzyloxycyclohexyl)-4-(2-oxo-4-trifluoromethyl-1,2-dihydroquinolin-6-ylmethyl)-benzenesulfonamide] returned a half-inhibitory concentration (IC50) of over 10 µM.
On to `COc1cc(CNS(=O)(=O)c2ccc(Cc3ccc4[nH]c(=O)cc(C(F)(F)F)c4c3)cc2)cc(OC)c1` [Example 80, N-(3,5-Dimethoxybenzyl)-4-(2-oxo-4-trifluoromethyl-1,2-dihydroquinolin-6-ylmethyl)-benzenesulfonamide], for which the half-inhibitory concentration (IC50) is over 10 µM.
`Cc1ccccc1CNS(=O)(=O)c1ccc(Cc2ccc3oc(=O)cc(C(F)(F)F)c3c2)cc1` [Example 171, N-(2-Methylbenzyl)-4-(2-oxo-4-trifluoromethyl-2H-chromen-6-ylmethyl)benzenesulfonamide] showed an IC50 of 9.62 µM.
Take `O=c1cc(C(F)(F)F)c2cc(Cc3ccc(S(=O)(=O)NCc4ccccc4Sc4ccccc4CO)cc3)ccc2[nH]1` [Example 94, N-[2-(2-Hydroxymethyl-phenylsulfanyl)benzyl]-4-(2-oxo-4-trifluoromethyl-1,2-dihydroquinolin-6-ylmethyl)-benzenesulfonamide]: the half-maximal inhibitory concentration (IC50) was over 10 µM.
Consider `CCOC(=O)CC(NS(=O)(=O)c1ccc(Cc2ccc3[nH]c(=O)cc(C(F)(F)F)c3c2)cc1)c1ccccc1` (stereo not drawn) [Example 91, 3-[4-(2-Oxo-4-trifiuoromethyl-1,2-dihydroquinolin-6-ylmethyl)-benzenesulfonylamino]-3-phenylpropionic acid ethyl ester], for which the IC50 is over 10 µM.
`O=c1cc(C(F)(F)F)c2cc(Cc3ccc(S(=O)(=O)NCCc4ccc(Cl)cc4)cc3)ccc2[nH]1` [Example 74, N-[2-(4-Chlorophenyl)ethyl]-4-(2-oxo-4-trifluoromethyl-1,2-dihydroquinolin-6-ylmethyl)-benzenesulfonamide] displayed an IC50 of over 10 µM.
As to `CCN(Cc1ccncc1)S(=O)(=O)c1ccc(Cc2ccc3[nH]c(=O)cc(C(F)(F)F)c3c2)cc1` [Example 5, N-Ethyl-4-(2-oxo-4-trifluoromethyl-1,2-dihydroquinolin-6-ylmethyl)-N-pyridin-4-ylmethylbenzenesulfonamide], the IC50 is over 10 µM.
Compound `CCOc1ccc(NS(=O)(=O)c2ccc(Cc3ccc4oc(=O)cc(C(F)(F)F)c4c3)cc2)cc1` [Example 150, N-(4-Ethoxyphenyl)-4-(2-oxo-4-trifluoromethyl-2H-chromen-6-ylmethyl)-benzenesulfonamide] displayed an IC50 of 7.2 µM.
For `CC(C)N(C)S(=O)(=O)c1ccc(Cc2ccc3oc(=O)cc(C(F)(F)F)c3c2)cc1` [Example 101, N-Isopropyl-N-methyl-4-(2-oxo-4-trifluoromethyl-2H-chromen-6-ylmethyl)-benzenesulfonamide], the half-maximal inhibitory concentration (IC50) is 2.65 µM.
In the case of `CSc1cccc(NS(=O)(=O)c2ccc(Cc3ccc4oc(=O)cc(C(F)(F)F)c4c3)cc2)c1` [Example 134, N-(3-Methylsulfanylphenyl)-4-(2-oxo-4-trifluoromethyl-2H-chromen-6-ylmethyl)-benzenesulfonamide] it was 1.24 µM.
Compound `COc1cc(NS(=O)(=O)c2ccc(Cc3ccc4oc(=O)cc(C(F)(F)F)c4c3)cc2)cc(OC)c1` [Example 141, N-(3,5-Dimethoxyphenyl)-4-(2-oxo-4-trifluoromethyl-2H-chromen-6-ylmethyl)-benzenesulfonamide] returned an IC50 of 3.24 µM.
Then `C#Cc1ccc(NS(=O)(=O)c2ccc(Cc3ccc4[nH]c(=O)cc(C(F)(F)F)c4c3)cc2)cc1` [Example 15, N-(4-Ethynylphenyl)-4-(2-oxo-4-trifluoromethyl-1,2-dihydroquinolin-ylmethyl)benzenesulfonamide], with 2.8 µM; and `O=c1cc(C(F)(F)F)c2cc(Cc3ccc(S(=O)(=O)Nc4ccccc4)cc3)ccc2o1` [Example 113, 4-(2-Oxo-4-trifluoromethyl-2H-chromen-6-ylmethyl)-N-phenylbenzenesulfonamide], with 0.72 µM.
`CCCN(CCO)S(=O)(=O)c1ccc(Cc2ccc3oc(=O)cc(C(F)(F)F)c3c2)cc1` [Example 102, N-(2-Hydroxyethyl)-4-(2-oxo-4-trifluoromethyl-2H-chromen-6-ylmethyl)-N-propylbenzenesulfonamide] displayed an IC50 of 2.91 µM.

Source of the values: patent US7098340B2, “Benzyl sulfonamide derivatives” (Warner Lambert Company LLC, priority 2003, dated 2006).
